From patent US8507472B2 (priority 2010, dated 2013) come the findings set out here.

Molecules are shown by their SMILES.

The data set can be described thus: log P determination by HPLC retention times (alkan-2-one calibration). Conditions: HCOOH, preparation examples in the text; for chromatographic logP: log P(HCOOH).

In turn, `CC(C)(C)OC1Cc2c([O-])on[n+]2C1` (stereo not drawn) [III-4, 5-tert-Butoxy-5,6-dihydro-4H-pyrrolo[1,2-c][1,2,3]oxadiazol-7-ium 3-olate] had a chromatographic logP of 1.34.

Turning to `[O-]c1on[n+]2c1CCCCC2` [III-1, 5,6,7,8-Tetrahydro-4H-[1,2,3]oxadiazolo[3,4-a]azepin-9-ium 3-olate], the chromatographic logP is 0.6.

`Fc1ccccc1-c1nn2c(c1Br)CCC2` [VIII-22, 3-Bromo-2-(2-fluorophenyl)-5,6-dihydro-4H-pyrrolo[1,2-b]pyrazole] came in with a chromatographic logP of 2.81.

Consider `CC1CCc2c(C(=O)O)c(-c3ccccc3F)nn21` (stereo not drawn) [XXXI-3, 2-(2-Fluorophenyl)-6-methyl-5,6-dihydro-4H-pyrrolo[1,2-b]pyrazole-3-carboxylic acid], for which the chromatographic logP came to 1.64.

`COc1ccc(-c2cc3n(n2)CCC3)cc1` [VII-7, 2-[4-(Methoxy)phenyl]-5,6-dihydro-4H-pyrrolo[1,2-b]pyrazole] had a chromatographic logP of 2.17.

With `ClCc1cc(-c2ccccc2)n[nH]1` [XV-1, 5-(Chloromethyl)-3-phenyl-1H-pyrazole], the chromatographic logP amounted to 2.05.

`c1ccc(-c2cc3n(n2)CCSC3)cc1` [VIIb-1, 2-Phenyl-6,7-dihydro-4H-pyrazolo[5,1-c][1,4]thiazine] yielded a chromatographic logP of 2.46.

With `c1cc(-c2cc3n(n2)CCC3)cs1` [VII-13, 2-[3-Thienyl]-5,6-dihydro-4H-pyrrolo[1,2-b]pyrazole], the chromatographic logP amounted to 2.01.

Regarding `c1ccc(-c2cc3n(n2)CCC3)cc1` [VII-2, 2-(Phenyl)-5,6-dihydro-4H-pyrrolo[1,2-b]pyrazole], the chromatographic logP turned out to be 2.19.

With `CC(Cl)CCC(=O)NN=C(c1ccccc1)c1ccccc1` (stereo not drawn) [XXV-1, 4-Chloro-N′-(diphenylmethylene)pentane hydrazide], the “log P(HCOOH)” value was 3.76.

As to `Clc1ccc(C#Cc2ccncc2)cc1` [II-5, 4-{[4-Chlorophenyl]ethynyl}pyridine], the chromatographic logP turned out to be 2.43.

With `Fc1cccc(-c2cc3n(n2)CCC3)c1` [VII-10, 2-[3-Fluorophenyl]-5,6-dihydro-4H-pyrrolo[1,2-b]pyrazole], the chromatographic logP came out at 2.46.

With `FC(F)(F)c1ccc(-c2cc3n(n2)CCC3)cc1` [VII-9, 2-[4-(Trifluoromethyl)phenyl]-5,6-dihydro-4H-pyrrolo[1,2-b]pyrazole], the chromatographic logP turned out to be 3.2.

As for `CCOC(=O)CC(=NN1CCCC1=O)c1ccccc1F` [XXVIII-4, Ethyl 3-(2-fluorophenyl)-3-[(2-oxopyrrolidin-1-yl)imino]propanoate], the chromatographic logP was determined as 1.97.

Molecule `O=C1CCCN1N=C(c1ccccc1)c1ccccc1` [XXVI-2, 1-[(Diphenylmethylene)amino]pyrrolidin-2-one] gave a chromatographic logP of 2.23.

`COc1ccc(-c2nn3c(c2I)CCC3)cc1` [VIII-9, 2-[4-(Methoxy)phenyl]-3-iodo-5,6-dihydro-4H-pyrrolo[1,2-b]pyrazole] came in with a chromatographic logP of 3.01.

Molecule `Fc1ccc(-c2cc3n(n2)CCCC3)cc1` [VII-1, 2-(4-Fluorophenyl)-4,5,6,7-tetrahydropyrazolo[1,5-a]pyridine] registered a chromatographic logP of 2.76.

Molecule `Ic1c(-c2ccccc2)nn2c1CCCC2` [VIII-12, 2-(Phenyl)-3-iodo-4,5,6,7-tetrahydropyrazolo[1,5-a]pyridine] showed a chromatographic logP of 3.55.

`Fc1ccc(-c2nn3c(c2I)CCOC3)cc1` [VIIIa-1, 2-(4-Fluorophenyl)-3-iodo-4,5-dihydropyrazolo[1,5-c][1,3]oxazine] came in with a chromatographic logP of 3.23.

`Ic1c(-c2ccsc2)nn2c1CCC2` [VIII-8, 2-[3-Thienyl]-3-iodo-5,6-dihydro-4H-pyrrolo[1,2-b]pyrazole] displayed a chromatographic logP of 2.97.

Molecule `Ic1c(-c2ccccc2)nn2c1COCC2` [VIII-15, 3-Iodo-2-phenyl-6,7-dihydro-4H-pyrazolo[5,1-c][1,4]oxazine] had a chromatographic logP of 2.82.
